# Source: publication PMC11253855, “Phosphonodiamidate prodrugs of phosphoantigens (ProPAgens) exhibit potent Vγ9/Vδ2 T cell activation and eradication of cancer cells” (RSC Medicinal Chemistry, 2024)
# pEC50: −log10 of the molar value.
# How the values were obtained:
# [1] = tested on: Vγ9/Vδ2 T cells; experiment: In vitro Vγ9/Vδ2 T cell activation assay (PBMCs, CD69+ CD25+ by flow cytometry); assay type: cell-based, human; settings: Homo sapiens, T-cell, read-out: EC50 (activation of Vγ9/Vδ2 T cells)
# Protocol: Subsequently, we studied the ability of these HMBP phosphonodiamidate ProPAgens to activate Vγ9/Vδ2 T cells and elicit their lysis of cancer cells in vitro. For this, peripheral blood mononuclear cells (PBMCs) derived from healthy donors and containing Vγ9/Vδ2 T cells were incubated with increasing concentrations of zoledronate or phosphonodiamidate HMBP ProPAgens 9a–d and 14a–d (up to 100 μM) (Fig. 4). Peripheral blood γδ T cells lack appreciable levels of surface CD69 or CD25 under steady-state conditions, but TCR stimulation upregulates both T cell activation markers.[6] Thus, PAg-responsive Vγ9/Vδ2 T cells were then assessed for the upregulation of CD69 and CD25.
# Fig. 4 In vitro phosphonodiamidate ProPAgen-mediated activation of Vγ9/Vδ2 T cells, following overnight incubation with zoledronate, and HMBP ProPAgens 9a–d and 14a–d. Levels of activation are represented as % of Vγ9/Vδ2 T cells that are CD69+ CD25+. Data is shown as mean ± SE (n = 4). (A) Activation of Vγ9/Vδ2 stimulated by phosphonodiamidate ProPAgens 9a–d. (B) Activation of Vγ9/Vδ2 stimulated by ProPAgens 14a–d. (C) Activation of Vγ9Vδ2 stimulated by zoledronate (Zol). (D) EC50 values were calculated using GraphPad Prism v9 based on the results of the activation assay.
# As for the activation of Vγ9/Vδ2 T cells by the phosphonodiamidate ProPAgens (9a–d and 14a–d), these were initially tested using a concentration range from […] to 100 μM (Fig. 4A and B).
# Healthy donor peripheral blood mononuclear cells (PBMCs) were harvested as previously described.[20] To assess the activation of Vγ9/Vδ2 T cells, PBMCs were seeded into U-bottom tissue culture-treated 96-well plates at a cell density of 500 000 cells per well. The cells were incubated with medium-only (control), in the presence of zoledronate at 10 pM to 100 μM, and with HMBP ProPAgens initially at 10 pM to 100 μM, and then at 1 aM to 100 μM for compounds 9d and 14d in a separate experiment. The cells were incubated at 37 °C/5% CO2 overnight, and stained by flow cytometry for the following markers: viability (Zombie Aqua 1 : 400), CD3 (BV421 1 : 100), CD8 (BV650 1 : 200), Vγ9 (PEcy5 1 : 400), Vδ2 (APC 1 : 200), CD69 (PE 1 : 25), CD25 (FITC 1 : 100). The samples were acquired via LSRFortessa X20 (BD Biosciences), and the data obtained were analyzed using FlowJo v10 and GraphPad Prism v9 software.
# [2] = Human serum stability assay (31P NMR); assay type: in vitro ADME; settings: 37 °C, read-out: human serum stability t1/2
# Protocol: Upon synthesis, we first studied whether these phosphonodiamidate ProPAgens are stable in human serum. As a representative of this class of phosphonodiamidate ProPAgens in the serum stability studies, we chose ProPAgen 9b, which has an iPr ester like the two FDA-approved phosphoramidate prodrugs, sofosbuvir and tenofovir alafenmide.[24,33] Thus, ProPAgen 9b was incubated with human serum at 37 °C for […] and monitored the sample by ^31P NMR, as we reported previously.[20] […] Following the incubation of the phosphonodiamidate ProPAgen 9b with human serum and monitoring of the sample by ^31P-NMR, these original 9b^31P-NMR peaks remained present through the 7.5 h of the study, and no new ^31P-NMR peaks were observed. […] This stability profile is in line with the aryloxy diester phosphoramidate prodrugs of these monophosphonates that we reported[20] before and that of the analogous symmetrical nucleoside phosphorodiamidate prodrugs.[26]
# Fig. 2 Stability of the HMBP phosphonodiamidate ProPAgen 9b in human serum at 37 °C for 7.5 h as monitored by ^31P NMR. […]
# This experiment was carried out as previously reported.[20,26,40] […] After recording the first ^31P NMR data, 0.3 mL human serum (Merck Life Sciences) was added and monitored by NMR. […] Recorded data were processed and analyzed with Bruker Topspin 2.1 software.
# [3] = molecular target: T1, carboxypeptidase Y (Saccharomyces cerevisiae, UniProt P00729); experiment: Carboxypeptidase Y assay (31P NMR); assay type: in vitro ADME; settings: recombinant carboxypeptidase Y, 37 °C, 6.5 h
# T1 sequence (P00729 112-532): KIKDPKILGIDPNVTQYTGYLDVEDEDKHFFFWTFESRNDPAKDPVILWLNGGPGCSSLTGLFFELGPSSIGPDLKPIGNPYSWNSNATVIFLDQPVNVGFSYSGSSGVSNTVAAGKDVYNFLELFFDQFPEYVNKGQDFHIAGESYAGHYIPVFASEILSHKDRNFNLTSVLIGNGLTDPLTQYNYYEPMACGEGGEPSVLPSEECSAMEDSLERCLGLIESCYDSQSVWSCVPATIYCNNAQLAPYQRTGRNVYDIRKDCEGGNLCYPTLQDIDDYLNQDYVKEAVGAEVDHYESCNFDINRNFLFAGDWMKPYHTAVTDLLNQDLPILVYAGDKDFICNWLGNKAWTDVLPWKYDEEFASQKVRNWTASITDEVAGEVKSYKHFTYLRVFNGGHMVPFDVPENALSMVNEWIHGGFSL
# Protocol: Fig. 3 Metabolism of diamidate ProPAgens.
# With this postulated mechanism of phosphonodiamidate prodrugs in mind, we subsequently incubated the phosphonodiamidate ProPAgen 9b with recombinant carboxypeptidase Y at 37 °C and monitored the reaction by ^31P-NMR for 6.5 h. […] Upon addition of carboxypeptidase Y and within 0.5 h, a new ^31P NMR triplet (δP = 6.82, 7.27 and 7.72 ppm) appeared and became prominent as the assay proceeded while the original ^31P NMR peaks (δP = 14.16, 14.67 and 15.14 ppm) corresponding to ProPAgen 9b reduced over time.
# This experiment was carried out as previously reported.[20,26,40] 5.0 mg of the phosphonodiamidate ProPAgen 9b was dissolved in 0.2 mL of acetone, and 0.4 mL of Trizma buffer (pH 7.4) was added followed by 0.5 mg carboxypeptidase Y in 0.2 ml Trizma buffer (pH 7.4). The experiment was run on NMR phosphorus mode and scanned every half an hour for 6.5 h. The incubation temperature was 37 °C. Recorded data were processed and analyzed with Bruker Topspin 2.1 software.
# [4] = tested on: cancer patients; parameters: method as in PMID 18301889, PMID 20563721; settings: in combination with a low dose of IL-2; cited from earlier work
SMILES,pEC50 [1],half-life at 10 mg/mL [2] [h],carboxypeptidase Y-mediated breakdown [3],safety and tolerability in cancer patients [4]
"C/C(=C\CC(F)(F)P(=O)(N[C@@H](C)C(=O)OC(C)C)N[C@@H](C)C(=O)OC(C)C)CO [9b, Diisopropyl 2,2′-((((E)-1,1-difluoro-5-hydroxy-4-methylpent-3-en-1-yl)phosphoryl)bis(azanediyl))(2S,2′S)-dipropionate]",6.78,> 7.5,not fully metabolised,
"CC(O)(CBr)CCOP(=O)(O)OP(=O)(O)O (stereo not shown) [BrHPP, bromohydrin pyrophosphate]",,,,safe and well tolerated
